Data: US20120088800A1, “2-(SUBSTITUTED) (ARYLMETHYL, ARYLOXY and ARYLTHIO))-N-(SUBSTITUTED PYRIDIN-2-YL)-2-(SUBSTITUTED ARYL) COMPOUNDS AS SUBTYPE-SELECTIVE MODULATORS OF SPHINGOSINE-1-PHOSPHATE-3 (S1P3) RECEPTORS” (ALLERGAN, INC., priority 2009, published 2012)
Counter-ions that a name gives are not always drawn.

Key:
perfused porcine eyes = conditions: IOVS 45, 2263, 2004; cited from earlier work
S1P2 = target: T1, S1P2 (Homo sapiens, UniProt O95136); assay: FLIPR calcium assay, cells expressing S1P2 and a G-protein; format: cell-based; conditions: fluo-4 calcium signal compared to sphingosine 1-phosphate
T1 construct: expressed in transfected cells
T1 sequence (O95136 whole entry, species assumed): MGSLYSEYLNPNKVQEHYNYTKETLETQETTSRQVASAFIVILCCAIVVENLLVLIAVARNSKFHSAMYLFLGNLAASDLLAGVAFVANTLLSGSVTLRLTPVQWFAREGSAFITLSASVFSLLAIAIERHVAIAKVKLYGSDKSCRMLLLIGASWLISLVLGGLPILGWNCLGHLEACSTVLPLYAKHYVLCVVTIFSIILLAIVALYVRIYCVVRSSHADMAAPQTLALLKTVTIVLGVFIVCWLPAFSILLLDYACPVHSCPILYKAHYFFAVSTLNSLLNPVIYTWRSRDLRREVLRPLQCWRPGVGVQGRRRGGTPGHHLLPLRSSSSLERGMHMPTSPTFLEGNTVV
Source text: (§1) Novel compounds having this general structure were synthesized and tested for sphingosine 1-phosphate receptor (S1P) activity using the FLIPR assay. Cells expressing the receptor of interest (S1P1, S1P2 or S1P3) and a G-protein (Gqi5 or G16) are loaded with fluo-4, a calcium sensitive dye. After removal of excess dye by washing, the cells are placed in the FLIPR TETRA instrument. Baseline fluorescence readings are taken prior to addition the compound to be tested. Agonists will trigger the receptor to interact with the G-protein, leading to an increase in intracellular calcium. The increase in intracellular calcium causes an increase in the fluorescence of the cells, due to the presence of fluo-4. This fluorescence increase is recorded by the FLIPR TETRA. After the calcium transient signal has decreased towards baseline, the standard agonist sphingosine 1-phosphate is added. If the test compound is an antagonist, an initial calcium signal will not be generated and the antagonist will prevent the generation of a calcium signal from sphingosine 1-phosphate. The level of fluorescence is compared to that of sphingosine 1-phosphate, and the EC50 or IC50 of the compound determined by curve fitting.

S1P3 = target: T2, S1P3 (Homo sapiens, UniProt Q99500); assay: FLIPR calcium assay, cells expressing S1P3 and a G-protein; format: cell-based; conditions: for EC50: fluo-4 calcium signal compared to sphingosine 1-phosphate, antagonist mode; for FLIPR (% Antagonism) S1P3: value in parentheses below the EC50, antagonism of sphingosine 1-phosphate signal
T2 construct: expressed in transfected cells
T2 sequence (Q99500 whole entry, species assumed): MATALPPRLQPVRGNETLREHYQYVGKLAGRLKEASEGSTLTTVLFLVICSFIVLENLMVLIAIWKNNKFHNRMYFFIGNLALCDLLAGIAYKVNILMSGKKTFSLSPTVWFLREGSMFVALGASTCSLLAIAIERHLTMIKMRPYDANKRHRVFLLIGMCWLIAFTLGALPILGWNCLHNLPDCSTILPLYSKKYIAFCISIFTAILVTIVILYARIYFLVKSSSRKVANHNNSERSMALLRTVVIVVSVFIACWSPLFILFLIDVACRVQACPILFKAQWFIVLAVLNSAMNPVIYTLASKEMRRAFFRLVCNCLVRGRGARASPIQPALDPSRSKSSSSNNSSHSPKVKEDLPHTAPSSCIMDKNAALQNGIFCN
Source text: as §1

S1P1 = target: T3, S1P1 (Homo sapiens, UniProt P21453); assay: FLIPR calcium assay, cells expressing S1P1 and a G-protein; format: cell-based; conditions: fluo-4 calcium signal compared to sphingosine 1-phosphate
T3 construct: expressed in transfected cells
T3 sequence (P21453 whole entry, species assumed): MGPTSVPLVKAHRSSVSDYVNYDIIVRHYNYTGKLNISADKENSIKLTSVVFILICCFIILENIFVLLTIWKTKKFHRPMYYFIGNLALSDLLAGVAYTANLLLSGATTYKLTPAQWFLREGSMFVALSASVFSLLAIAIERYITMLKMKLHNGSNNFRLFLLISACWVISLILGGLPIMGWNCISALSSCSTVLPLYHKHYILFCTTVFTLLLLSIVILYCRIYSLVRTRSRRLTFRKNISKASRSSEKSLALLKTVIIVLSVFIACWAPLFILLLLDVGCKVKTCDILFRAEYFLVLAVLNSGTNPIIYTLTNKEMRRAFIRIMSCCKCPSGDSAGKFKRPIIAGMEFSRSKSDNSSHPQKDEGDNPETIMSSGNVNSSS
Source text: as §1

EC50 (S1P2) [nM]	EC50 (S1P3) [nM]	FLIPR (% Antagonism) S1P3 (S1P3)	EC50 (S1P1) [nM]	Structure (SMILES)	decrease of outflow facility (perfused porcine eyes) [%]
–	–	–	–	CCCCCCCCCCCCC/C=C/[C@@H](O)[C@@H](N)COP(=O)(O)O [Example S1P, sphingosine 1-phosphate]	> 30
> 8300	160	(101) %	> 8300	O=C(Nc1ccc(Cl)cn1)C(Sc1ccc(Cl)cc1)c1ccccc1 (stereo not drawn) [Example 27, 2-(4-chlorophenylthio)-N-(5-chloropyridin-2-yl)-2-phenylacetamide]	–
> 8300	322	(99) %	> 8300	Cc1ccc(SC(C(=O)Nc2ccc(Cl)cn2)c2ccc(Cl)cc2)cc1 (stereo not drawn) [Example 17, 2-(4-chlorophenyl)-N-(5-chloropyridin-2-yl)-2-(p-tolylthio)acetamide hydrochloride]	–
> 8300	208	(97) %	> 8300	O=C(Nc1ccc(Cl)cn1)C(Sc1cccc(Cl)c1)c1ccccc1 (stereo not drawn) [Example 21, 2-(3-chlorophenylthio)-N-(5-chloropyridin-2-yl)-2-phenylacetamide hydrochloride]	–
> 8300	361	(100) %	> 8300	COc1ccc(SC(C(=O)Nc2ccc(Br)cn2)c2ccc(Cl)cc2)cc1.Cl (stereo not drawn) [Example 11, N-(5-bromopyridin-2-yl)-2-(4-chlorophenyl)-2-(4-methoxyphenylthio)acetamide hydrochloride]	–
> 8300	256	(100) %	> 8300	O=C(Nc1ccc(Br)cn1)C(Sc1ccccc1)c1ccccc1 (stereo not drawn) [Example 10, N-(5-bromopyridin-2-yl)-2-phenyl-2-(phenylthio)acetamide hydrochloride]	–
